{"source": "patent US20250255847A1", "about": "“[…]s: Novel Drugs for Triple Negative Breast Cancer” (SIMMARON RSEARCH INC, priority 2024, published 2025)", "molecular_target": "T1, full-length STAT5b protein (Homo sapiens, UniProt P51692)", "T1 construct": "full-length STAT5b protein melting was assessed with (J) SIM-1, (K) SIM-2, and (L) stattic", "T1 sequence (P51692 1-787)": "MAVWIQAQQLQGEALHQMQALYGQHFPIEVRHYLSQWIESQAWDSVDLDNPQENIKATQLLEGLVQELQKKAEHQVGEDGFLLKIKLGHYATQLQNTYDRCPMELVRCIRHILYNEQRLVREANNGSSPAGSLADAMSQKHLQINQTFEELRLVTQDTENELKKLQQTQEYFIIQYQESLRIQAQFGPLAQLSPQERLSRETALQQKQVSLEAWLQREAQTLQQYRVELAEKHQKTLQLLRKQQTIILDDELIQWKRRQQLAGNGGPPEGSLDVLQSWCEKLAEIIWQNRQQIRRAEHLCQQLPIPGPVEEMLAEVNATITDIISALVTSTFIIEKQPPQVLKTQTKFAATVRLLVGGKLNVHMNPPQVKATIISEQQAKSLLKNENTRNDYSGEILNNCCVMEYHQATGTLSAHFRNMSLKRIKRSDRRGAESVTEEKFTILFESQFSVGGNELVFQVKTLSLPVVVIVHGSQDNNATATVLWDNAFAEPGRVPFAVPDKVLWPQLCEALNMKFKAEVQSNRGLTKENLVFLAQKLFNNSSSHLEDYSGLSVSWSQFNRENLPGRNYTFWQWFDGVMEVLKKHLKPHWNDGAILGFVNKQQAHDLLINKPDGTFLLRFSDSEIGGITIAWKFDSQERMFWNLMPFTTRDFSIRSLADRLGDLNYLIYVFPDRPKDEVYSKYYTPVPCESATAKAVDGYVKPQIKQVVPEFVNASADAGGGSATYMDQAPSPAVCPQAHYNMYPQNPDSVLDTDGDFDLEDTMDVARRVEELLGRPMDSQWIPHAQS", "assay": "Protein thermal shift binding assay with STAT5b", "conditions": "increasing doses", "protocol": "FIG. 5 illustrates an embodiment of the present invention and illustrates evaluations of SIM-1 and SIM-2 as STAT3 inhibitors. (A) Protein thermal shift assay was performed to assess the melting of purified recombinant STAT3 (blue; 0.5 μg protein) (Tm=melting temperature=68.88° C.). The representative melting curves were derived after adding SIM-1 (red; 4 nM), SIM-2 (purple; 8 nM), and positive control stattic (grey; 20 nM) to the STAT3 protein. The differences of melting temperature (ΔTm) between pure protein and protein+ligands are −4.54° C., −4.16° C., and 0.39° C. for SIM-1, SIM-2, and stattic (ΔTm^cut-off>2° C.). (B) Phospho protein array analysis was conducted in cell lysates of MDA-MB-468 cells treated with DMSO control (top left), 25 ng/mL EGF (top right), EGF+10 nM SIM-1 (bottom left), and EGF+SIM-2 (bottom right) for 24 hrs. Each colored arrowhead represents a specific phosphoprotein, and the description was added in the bottom of array images. S=serine and Y=tyrosine. Relative levels of (C) Tyrosine 705 (Y705) phosphorylated STAT3, (D) Serine 727 (S727) phosphorylated STAT3, (E) Tyrosine 693 (Y693) phosphorylated STAT4, (F) Tyrosine 694 ([…]) phosphorylated STAT5A had been derived after normalizing the spot densities (n=5) with respective β-actin spots. Results are mean±SD of five different spot analyses. One-way ANOVA was adopted to test the significance of mean between groups at **p<0.01, and ****p<0.0001. Ns=no significance. Thermal shift assays of increasing doses of (G) SIM-1, (H) SIM-2, and (I) stattic with purified STAT1 protein (0.5 μg protein). The respective ΔTm values were given with the plot after matching with the color code. Similarly, full-length STAT5b protein melting was assessed with (J) SIM-1, (K) SIM-2, and (L) stattic. Results are confirmed after three different experiments.\nTo confirm the result, PTS assay of STAT1 with SIM-1 (FIG. 5G), SIM-2 (FIG. 5H), and stattic (FIG. 5I) was performed. […] Similar results were observed while performing the binding assay with STAT5b."}
{"smiles": "O=C(O)CCC(=O)NCc1csc2ccc(Cl)cc12", "note": "[SIM-1, 4-[(5-chloro-1-benzothiophen-3-yl)methylamino]-4-oxobutanoic acid]", "values": [{"measurement": "shift in the melting curve of STAT5b", "value": "unable to produce any significant shift"}]}
{"smiles": "CCOC(=O)c1c(NC(C)=O)sc2c(Cl)c(/C=N/O)ccc12", "note": "[SIM-2, ethyl 2-acetamido-7-chloro-6-(hydroxyiminomethyl)-1-benzothiophene-3-carboxylate]", "values": [{"measurement": "shift in the melting curve of STAT5b", "value": "unable to produce any significant shift"}]}
